Test results taken from patent US10940139B2, “Compounds that interact with the Ras superfamily for the treatment of cancers, inflammatory diseases, rasopathies, and fibrotic disease” (Shy Therapeutics LLC, priority 2017, dated 2021).

target: KRas G12D/Q61H double mutant (Homo sapiens (Human), UniProt P01116, G12D/Q61H); experiment: Ras GTP binding domain inhibition assay (labeled GTP); settings: 20 μM compound; read-out: % Inhibition at 20 μM KRas G12D Q61H
Protocol: Buffer-I: • 50 mM Tris, pH 7.5 • 150 mM NaCl (optional) • 1 mM MgCl2 • 1 mM DTT. • KRas G12D mutant protein was expressed as a His-tagged protein. Purified His-KRas G12D protein was diluted in buffer-I to a final concentration of 3-10 μg/ml. • 200 μl of the diluted His-KRas G12D protein was added to a nickel coated 96 well plate and incubated overnight at 4° C. • The next day, wells were washed 3× in 200 μl of Buffer-I. • Then 200 μl of Buffer-I were added to each well in the presence of 1% DMSO. • Tested compounds were added to the protein-coated wells at a concentration of 20 μM, and incubated for 3 hours at room temperature. While performing IC50 measurements a serial dilution of all tested concentrations was prepared.
Then 22 μl of Cy3-GTP or Cy5-GTP was added to each well. The labeled GTP was incubated for 45 min. at room temperature. • Following GTP incubation, wells were washed 3× in Buffer-I, and 200 μl of Buffer-I were added to each well. • Following washes, the amount of bound labeled-GTP was measured with an Eppendorf AF2200 plate reader.
By substituting KRas G12D mutant protein with KRas G12C mutant, KRas wild type, KRas Q61H mutant, KRas G12D/Q61H double mutant or KRas G12C/Q61H double mutant under the assay conditions described above, KRas G12C mutant KRas wild type, KRas Q61H mutant, KRas G12D/Q61H double mutant and KRas G12C/Q61H double mutant inhibition, respectively, were each determined.

Sequence of KRas G12D/Q61H double mutant (P01116-2 other isoform, or with tags, fused parts or gaps G12D/Q61H): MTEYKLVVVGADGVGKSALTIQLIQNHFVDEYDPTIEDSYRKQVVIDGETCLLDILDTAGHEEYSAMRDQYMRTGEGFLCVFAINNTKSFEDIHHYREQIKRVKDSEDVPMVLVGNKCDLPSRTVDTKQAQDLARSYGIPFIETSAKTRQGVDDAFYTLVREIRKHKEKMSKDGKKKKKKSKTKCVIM

Inhibition at 20 µM, 25 to 50%:
Cc1nc(-c2ccccn2)nc(O)c1CCC(=O)NCc1ccccc1F
CN(C(=O)c1ccc(COc2ccccc2F)o1)c1nccs1
O=C(CCCNc1ncccn1)Nc1nnc(-c2ccccn2)[nH]1
O=C(Cc1ccc2c(c1)CCCC2)Nc1nnc(-c2ccccn2)[nH]1
Cc1cc(C)n2nc(CC(=O)N(Cc3ccccc3F)C3CC3)nc2n1
Cc1ccc(S(=O)(=O)Nc2ccc(OS(=O)(=O)N(C)Cc3ccccc3)cc2)cc1
CNC(=O)CNc1nc(-c2ccccn2)nc2scc(-c3ccccc3)c12
Cc1ccc(C)c(NC(=O)c2ccccc2OCCOc2ccccc2)c1
Cc1ccc(OCCSc2nnc(C(C)Oc3ccc(F)cc3)o2)cc1 (stereo not shown)
CCN(Cc1ccc(S(=O)(=O)N(C)C)o1)c1ccccc1
COc1ccc(OC)c(-c2csc(C3CC3)n2)c1
O=c1[nH]c(-c2ncccn2)nc2ccc(-c3cccc(C(F)(F)F)c3)cc12
COc1ccc(-c2nc(C(=O)NC(C)c3ccccn3)cs2)cc1 (stereo not shown)
CCOc1ccc(S(=O)(=O)N(CC(=O)N2CCc3ccccc32)Cc2ccco2)cc1
Cn1c(CNCc2ccccc2OCc2ccccc2)nc2ccccc21
COc1ccc(CC(=O)Nc2nc(-c3ccccn3)cs2)cc1
O=C(c1ccc(-c2ccccc2Cl)o1)N(Cc1cccs1)C1CC1
Cc1noc(CNc2cc(C(F)(F)F)ccc2N2CCCC2)n1
Cc1ccc(-c2cc(C(=O)N(C3CC3)C(C)c3ccco3)on2)cc1 (stereo not shown)
COCCN(c1nc2ccccc2s1)S(=O)(=O)c1ccccc1
CC(Oc1ccc(F)cc1)c1nnc(SCCOc2ccc(F)cc2)o1 (stereo not shown)
COC(=O)c1cccc(CN2CCN(c3cccc(C(F)(F)F)c3)CC2)c1
COc1ccc(CN(Cc2cccs2)C(=O)c2cc3ccccc3o2)cc1OC
Cc1nc(-c2ccccn2)sc1C(=O)NCCNc1cnccn1
COc1ccc(S(=O)(=O)N(CC(=O)N2CCCc3ccccc32)Cc2ccco2)cc1
Cc1cccc(C)c1Oc1ccccc1NCc1nnc(C2CC2)o1
Cc1cc(C)n(-c2ccc(C(=O)Nc3nnc(-c4ccccn4)[nH]3)cn2)n1
FC(F)(F)c1ccc(N2CCCC2)c(NCc2nc(-c3ccco3)no2)c1
NC(=O)c1cc(N2CCN(c3cccc(C(F)(F)F)c3)CC2)nc2ccccc12
Cc1cccc(C(=O)Nc2ccc(OS(=O)(=O)N3CCc4ccccc4C3)cc2)c1
CCC1COCCN1c1nc(-c2ccccn2)nc2scc(-c3ccccc3)c12 (stereo not shown)
Cc1nc(CN(Cc2ccccc2[N+](=O)[O-])C(C)c2ccc(Cl)cc2)oc1C (stereo not shown)
CCCOc1ccc(OCCOC(=O)c2cccnc2SCCOc2ccc(OCCC)cc2)cc1
Cc1nc(-c2ccc(F)cc2)sc1C(=O)NCCN(C)c1ccccc1
CCc1cc(NNC(=O)c2ccc(C)s2)nc(-c2ccccn2)n1
Cc1oc(-c2ccccc2)nc1CN(C)CC(=O)Nc1ccc(N2CCOCC2)cc1
CC(=O)N1CCC(Nc2nc(-c3ccccn3)nc3c2CCC3)C1 (stereo not shown)
Cc1cccc(C)c1Oc1ccccc1NCc1nc(C2CC2)no1
Cc1nc(C2CN(Cc3ccccc3F)CCO2)no1 (stereo not shown)
CC(C)Cc1csc2[nH]c(-c3ccccn3)nc(=O)c12
Cc1cc(C)n(CCCNC(=O)c2cc(S(=O)(=O)N3CCCCC3)ccc2N2CCOCC2)n1
c1ccc(-c2csc3nc(-c4ccccn4)nc(NCc4ccccn4)c23)cc1
COc1ccc(S(=O)(=O)N2CCCCCC2)cc1C(=O)NCCc1ccccc1
